Experiments:
Assay in all cases: UV-visible dark absorbance spectrum of purified reconstituted rhodopsin
Format in all cases: binding
Eumaeus atala UVRh = biological target: T1, Eumaeus atala UVRh (Eumaeus atala, UniProt A0A7T3U8H7); conditions: covalent, 40 uM 11-cis-retinal
T1 sequence (A0A7T3U8H7 1-406): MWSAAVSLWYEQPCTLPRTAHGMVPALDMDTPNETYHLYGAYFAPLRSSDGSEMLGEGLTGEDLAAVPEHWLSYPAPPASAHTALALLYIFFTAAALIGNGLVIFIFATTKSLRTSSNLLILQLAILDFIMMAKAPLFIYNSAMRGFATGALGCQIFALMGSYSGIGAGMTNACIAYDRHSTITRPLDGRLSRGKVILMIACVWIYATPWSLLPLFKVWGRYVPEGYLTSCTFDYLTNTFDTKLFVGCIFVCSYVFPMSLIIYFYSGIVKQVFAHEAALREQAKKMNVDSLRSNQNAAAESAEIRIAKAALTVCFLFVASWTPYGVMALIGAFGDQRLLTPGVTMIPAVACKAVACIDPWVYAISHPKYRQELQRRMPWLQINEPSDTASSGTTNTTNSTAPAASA

[1] = biological target: T2, Eumaeus atala LWRh (LW opsin) (Eumaeus atala, UniProt A0A7T3U8W4); conditions: covalent, 40 uM 11-cis-retinal, figure legend prints 567 nm
T2 sequence (A0A7T3U8W4 1-381): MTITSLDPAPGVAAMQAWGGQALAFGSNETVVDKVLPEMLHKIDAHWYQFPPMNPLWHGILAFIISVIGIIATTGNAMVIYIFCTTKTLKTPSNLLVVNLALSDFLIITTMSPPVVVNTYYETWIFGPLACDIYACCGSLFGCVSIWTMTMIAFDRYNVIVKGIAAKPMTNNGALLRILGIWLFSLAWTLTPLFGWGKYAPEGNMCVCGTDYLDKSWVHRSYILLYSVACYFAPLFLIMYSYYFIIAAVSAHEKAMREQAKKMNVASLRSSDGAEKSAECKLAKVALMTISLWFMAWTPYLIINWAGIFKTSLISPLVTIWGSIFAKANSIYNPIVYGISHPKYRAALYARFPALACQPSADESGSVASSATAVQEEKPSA

Eat-BRh1 (BRh1, Eat-B1) = biological target: T3, Eat-BRh1 (BRh1, Eat-B1) (Eumaeus atala, UniProt A0A7T3U8I9); conditions: covalent, 40 uM 11-cis-retinal
T3 sequence (A0A7T3U8I9 1-380): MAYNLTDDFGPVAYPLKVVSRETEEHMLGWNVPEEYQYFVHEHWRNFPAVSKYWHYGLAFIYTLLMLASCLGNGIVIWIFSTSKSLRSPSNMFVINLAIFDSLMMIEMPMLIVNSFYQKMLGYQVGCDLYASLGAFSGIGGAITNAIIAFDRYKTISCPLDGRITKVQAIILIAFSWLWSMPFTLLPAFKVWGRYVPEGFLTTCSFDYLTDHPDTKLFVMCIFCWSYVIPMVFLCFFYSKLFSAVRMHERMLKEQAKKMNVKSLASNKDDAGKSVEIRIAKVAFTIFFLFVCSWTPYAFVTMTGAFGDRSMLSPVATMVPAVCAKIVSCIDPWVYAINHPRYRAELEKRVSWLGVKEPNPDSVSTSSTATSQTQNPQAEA

Eat-BRh2 (BRh2, Eat-B2) = biological target: T4, Eat-BRh2 (BRh2, Eat-B2) (Eumaeus atala, UniProt A0A7T3U8M8); conditions: covalent, 40 uM 11-cis-retinal
T4 sequence (A0A7T3U8M8 1-380): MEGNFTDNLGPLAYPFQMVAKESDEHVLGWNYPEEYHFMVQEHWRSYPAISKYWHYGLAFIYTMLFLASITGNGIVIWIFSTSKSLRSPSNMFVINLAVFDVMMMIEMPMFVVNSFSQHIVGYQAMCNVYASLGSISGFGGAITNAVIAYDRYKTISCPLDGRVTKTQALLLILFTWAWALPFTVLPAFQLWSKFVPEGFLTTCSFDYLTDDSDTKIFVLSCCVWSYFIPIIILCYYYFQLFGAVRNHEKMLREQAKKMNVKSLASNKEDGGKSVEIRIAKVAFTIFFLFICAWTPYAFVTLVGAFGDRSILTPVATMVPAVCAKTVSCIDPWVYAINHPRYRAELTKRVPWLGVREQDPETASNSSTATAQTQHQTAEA

- λmax (Eumaeus atala UVRh): 352 ± 3.5 nm
- λmax [1]: 569 ± 2 nm
- λmax (Eat-BRh1 (BRh1, Eat-B1)): 435 ± 2 nm
- λmax (Eat-BRh2 (BRh2, Eat-B2)): 500 ± 2 nm
Compound: CC1=C(/C=C/C(C)=C/C=C\C(C)=C\C=O)C(C)(C)CCC1 [11-cis-retinal]

Reference: paper doi:10.1101/2020.04.06.027102v2 (biorxiv, 2020)
